Reference: a melting point compilation (Tetko et al.; mined from patent text by program, amines drawn as free bases though some values may be those of a salt)

In the case of CCCCOc1ccc(S(=O)(=O)C2(C(=O)O)CCN(Cc3ccc(OCCN4CCCCC4)cc3)CC2)cc1, the melting point is reported as 98 °C. For O=C1COc2cc(NC(=O)C(=O)N3CCC(Cc4ccc(F)cc4)CC3)ccc2N1, the melting point was 209 to 212 °C. O=C(c1nc2ccc(O)cc2[nH]1)N1CCC(=Cc2ccc(Cl)cc2)CC1 gave a melting point of 88 to 89 °C. Work on COc1ccccc1-c1ccccc1/C=C/C1CC(O)CC(=O)O1 (stereo unspecified) yielded a melting point of 129 to 131 °C. For COc1ccc(C2C(C(=O)c3ccc(OC(F)(F)F)cc3)=C(O)C(=O)N2c2ccc(C)nn2)cc1 (stereo unspecified), the melting point was 279 °C. COc1cc(F)cc(-c2nn(Cc3oc4ccccc4c(=O)c3-c3cccc(F)c3)c3ncnc(N)c23)c1 showed a melting point of 115 to 117 °C. For CCOC(CC)=NS(=O)(=O)c1nc(-c2ccccc2)ns1, the melting point was 98 to 100 °C. CCOC(=O)c1cnc2nn(C)cc2c1OC(C)C gave a melting point of 107 to 109 °C. Work on c1nnc2c3c(c(NCCN4CCCC4)nn12)CCCC3 yielded a melting point of 160 to 162 °C. Molecule Cc1cc(C(N)=O)ncc1C(c1c(F)ccc(F)c1F)S(=O)(=O)CCC(F)(F)F (stereo unspecified) has a melting point of 190 to 191 °C. Molecule N#CC(C(=O)Nc1ccccc1)C(=O)c1nn(-c2ccccc2)c2c1CSc1ccccc1-2 (stereo unspecified) has a melting point of 228 to 230 °C. O=C1c2cccc3cccc(c23)C(=O)N1CCCCN1CCC(O)(c2ccccc2)CC1 gave a melting point of 138 to 139 °C. Work on CN1C(=O)CC[C@]2(C)c3ccc(-c4ccc(NC(=O)C(C)(C)C)nc4)cc3CC[C@@H]12 yielded a melting point of 248 to 250 °C. For CC(C)(C)C(Br)(Br)C(=O)O, the melting point was 241 to 243 °C. For Nc1ccc(Br)cc1CC(F)(F)F, the melting point was 100 to 101 °C. CCN1C(=O)C(C)(C)C(=O)N(C)c2cc(CN(CCn3c(=O)ccc4ccccc43)Cc3cnccc3C)ccc21 gave a melting point of 120 to 121 °C. In the case of CC(c1ccc2[nH]nc(S(=O)(=O)c3cccc4ccccc34)c2c1)N1CCN(C)CC1 (stereo unspecified), the melting point is reported as 183 to 185 °C. With COc1ccc(NC(=O)c2ccccc2Cl)cc1 the melting point was 113 to 115 °C. CCN(CC)CCNC(=O)c1nc(Cl)c(OC)nc1OC gave a melting point of 88 °C. Work on C[C@@H](C(N)=O)c1ccc(NS(=O)(=O)c2ccc(Cl)cc2)cc1 yielded a melting point of 150 to 153 °C. For CC(Br)C(=O)NS(=O)(=O)c1cccc2c1OC(C)(C)C2 (stereo unspecified), the melting point was 224 to 226 °C. In the case of COCCSc1[nH]nc(-c2ccc(Cl)cc2)c1-c1ccncc1, the melting point is reported as 189 to 190 °C. For COC(=O)C1=CC(C(=O)OC)NC(=O)N1 (stereo unspecified), the melting point was 177 to 179 °C. O=C(c1ccc(F)cc1)N1CCC[C@H](c2nc(-c3ccc[nH]3)no2)C1 gave a melting point of 130 to 135 °C. For COc1ccc(C2CC(O)(c3ccc(OC4CCCCO4)cc3)C2)cc1 (stereo unspecified), the melting point was 72 to 75 °C. Work on COc1nccnc1C1=CN2CCC1CC2 yielded a melting point of 95 to 96 °C. Molecule CC(C)(C)OC(=O)c1ncn2c1cc(C(=O)N1CCN(C3CC3)CC1)c1cc(Cl)ccc12 has a melting point of 229 to 233 °C. FC(F)c1ccc2c(c1)C(Cc1ccncc1)(Cc1ccncc1)c1ccccc1-2 gave a melting point of over 300 °C. O=C(O)C1CCc2c(c3ccccc3n2Cc2ccccc2)C1 (stereo unspecified) showed a melting point of 195 to 196 °C. Work on N#CC1C=Cc2cc(Cl)ccc2N1C(=O)c1ccccc1 (stereo unspecified) yielded a melting point of 141 to 143 °C. With C=C(C)c1cc(NC(=O)N2CCN(c3cc(OC)cc(OC)c3)CC2)c(OC)nc1C the melting point was 83 to 85 °C. COc1ccc(O)c(CNc2ccc(NC(=O)CC(C)(C)C)cc2)c1 gave a melting point of 126 to 129 °C. CN(C)CCNc1nc(C(=O)Nc2nc3ccc(C#N)cc3s2)cs1 gave a melting point of 201 to 203 °C. Molecule C=CCCC(O)=C(C#N)C(=O)Nc1ccc(Cl)cc1 has a melting point of 138 °C. O=C1Nc2ccccc2C(=O)C1=O gave a melting point of over 250 °C. With CC(C)(C)c1cccc(C[C@@H]2N[C@@H](c3ccccc3)[C@@H](c3ccccc3)OC2=O)c1 the melting point was 136 to 137 °C. Cc1cccc(C)c1OC1CN(C(c2ccccc2)c2ccccc2)C1 showed a melting point of 99 to 100 °C. CC(C)(C)n1nnc(Cc2ccc(C(=O)O)cc2)n1 gave a melting point of 139 to 140 °C. Work on CC(C)(C)OC(=O)N[C@H]1CC[C@H](CCN2CCN(c3nccc4c3OCC4)CC2)CC1 yielded a melting point of 141 °C. For O=S(=O)(c1ccccc1)n1c2ccc(C=Cc3ccccc3)cc2c2cc(Cl)cnc21, the melting point was 190 to 192 °C. Work on COc1cc2c(N3CCN(Cc4ccccc4)CC3)nc(-c3ccc(Cl)cc3)nc2c(OC)c1OC yielded a melting point of 150 °C. For COc1ccc(CNc2cnn[nH]2)cc1OC1CCCC1, the melting point was 113 to 114 °C. For CC(=O)C1=C(O)C(=C(C)Nc2ccccc2N)C(=O)OC1=O, the melting point was 179 to 181 °C. CC(C)Oc1ccc(O)cc1OCCN1C(=O)c2ccccc2C1=O gave a melting point of 123 °C. Work on CN1C[C@@H](C(=O)OC(C)(C)C)NC1=O yielded a melting point of 135 to 136 °C. With O=C(CCCCCCCc1ccccc1)NNC(=O)c1ccc(O)cc1 the melting point was 150 to 152 °C. COc1ccc(NC(C)=O)cc1C(=O)O gave a melting point of 208 to 210 °C. In the case of CCC(CC)n1c(=O)n(C)c2c(Oc3c(C)cc(C)cc3C)nc(C)cc21, the melting point is reported as 152 to 154 °C. In the case of CCCCCCCCCCc1ccc2cc(SC)c(OS(=O)(=O)C(F)(F)F)cc2c1, the melting point is reported as 149 to 150 °C. CCOC(=O)c1cc2cc(N)ccc2[nH]1 showed a melting point of 124 to 125 °C. CC1(C)CC(NCCCCCCC(=O)O)CC(C)(C)N1 showed a melting point of 162 to 165 °C. Molecule Cc1cc2cc(C#N)c(=O)[nH]c2cc1C has a melting point of 300 °C. Cc1nccc(OCc2ccccc2)c1OCc1ccccc1 showed a melting point of 85 to 87 °C. COc1ccc2nc(C(=O)O)c(OCc3ccccc3)cc2c1 showed a melting point of 272 to 275 °C. CC(C)(C)OC(=O)N[C@@H](Cc1ccccc1)C(=O)CCl gave a melting point of 101 to 102 °C. O=C(O)CCNC(=O)OCC(Cl)(Cl)Cl gave a melting point of 89.4 to 91 °C. COC(=O)c1ccc(Cc2cn(C)c3ccc(C(=O)NCC(C)CC(F)(F)F)cc23)c(OC)c1 (stereo unspecified) showed a melting point of 150 to 151 °C. CCCCCCCCCCCCCCCCCCN(C)S(=O)(=O)c1ccc(Cl)c([N+](=O)[O-])c1 gave a melting point of 86 to 87 °C. O=C(O)c1cn(-c2nnc(C(F)(F)F)s2)c2nc(Cl)c(F)cc2c1=O gave a melting point of 232 to 237 °C. Molecule CCC1c2ccccc2-c2cc(-c3cccc4c3oc3ccccc34)ccc2N1S(=O)(=O)c1ccc(O)cc1 (stereo unspecified) has a melting point of 218 to 220 °C. With O=C1N(Cc2ccccn2)c2ccc(Br)cc2C12COc1cc3c(cc12)OCCO3 (stereo unspecified) the melting point was over 250 °C. CCC(=O)Oc1ccc(CC(=O)O)cc1C(C)(C)C gave a melting point of 55.5 to 56.5 °C. COc1ccc(NC(=O)c2ccccc2O)cc1 showed a melting point of 162 to 163 °C. O=C(Cn1ccnc1)Nc1cccc2nc(N[C@@H]3CCc4ccccc43)ccc12 gave a melting point of 226 °C. Molecule O=C(O)[C@@H](CCN1C(=O)c2ccccc2C1=O)Oc1c(Br)cc(-c2c3ccccc3cc3sc4ccccc4c23)cc1Br has a melting point of 222 to 223 °C. Molecule Clc1ccc(C2Cc3cnc(Nc4ccc(CCN5CCCCC5)cc4)nc3-c3ccccc32)cc1Cl (stereo unspecified) has a melting point of 157 to 158 °C. COc1ccc(CCNS(=O)(=O)Cc2ccc3[nH]cc(CCN)c3c2)cc1 gave a melting point of 128 to 129 °C. CCc1nc2cc(S(C)(=O)=O)c(Cl)cc2n1-c1ccc(CCOC(=O)NS(=O)(=O)c2ccc(C)cc2)cc1 showed a melting point of 105 to 110 °C. Molecule Clc1cccc(Nc2nccc(Cl)n2)c1 has a melting point of 112 to 114 °C. OCC1OC(n2cnc3cncnc32)CC1F (stereo unspecified) gave a melting point of 89 °C. In the case of O=[N+]([O-])c1ccc(/C=C/c2ccc(O)cc2)cc1, the melting point is reported as 210 °C. Cc1nsc(OCC(Cl)(Cl)Cl)c1S(N)(=O)=O showed a melting point of 140 to 142 °C. Work on CC(C)(C)OC(=O)NC1CCCCc2cc(OCC3CCCCC3)c(C(N)=O)cc21 (stereo unspecified) yielded a melting point of 193 to 194 °C. With CC/C(CO)=C(/c1ccccc1)c1ccc(O)cc1 the melting point was 112 to 116 °C. For C=CCOc1ccc(C=CC(=O)Oc2ccc(OC(=O)C(=C)C)cc2)cc1, the melting point was 118 °C. CCCCCNC(=O)[C@@H]1CCCN1C(=O)[C@H](C)NC(=O)CC showed a melting point of 105 to 108 °C. COc1ccccc1N1CCN(CCC(C(N)=O)(c2ccccn2)c2ccccc2[N+](=O)[O-])CC1 (stereo unspecified) showed a melting point of 63 to 72 °C. With Cc1nnc(-c2ccccc2O)o1 the melting point was 74 to 76 °C. In the case of CCOC(=O)c1c(-c2ccccc2)c2c3ccccc3cnn2c1C(C)C, the melting point is reported as 141 to 142 °C. For Cc1ccc(S(=O)(=O)N(c2ccc(F)cc2[N+](=O)[O-])C(C)C)cc1, the melting point was 129 to 130 °C. Work on CCOc1ccc(C(=O)Nc2ccccc2)cc1Nc1cccc(C(F)(F)F)c1 yielded a melting point of 184 to 185 °C. Molecule O=C(O)CCC(O)c1ccc(-c2ccccc2)c(Cl)c1 (stereo unspecified) has a melting point of 87 to 88 °C. CCOCCCOC(C)Cc1ccc(-c2ccc(O)cc2)cc1 (single isomer, unassigned; (-)) showed a melting point of 53 to 55 °C. Work on CCNSc1ccc([N+](=O)[O-])cc1C(Cl)(Cl)Cl yielded a melting point of 80 °C. Work on CCN(CC)C(=O)c1cc2ccc(Cl)cc2c(-c2ccccc2Cl)n1 yielded a melting point of 145 °C. Work on CC(C)(C)OC(=O)Nc1ccc(Br)cc1 yielded a melting point of 101 to 103 °C. Molecule COc1cccc(CN2CCC(N3C(=O)Nc4ccccc4C3c3cccc(O)c3)CC2)c1 (stereo unspecified) has a melting point of over 250 °C. Work on COC(=O)CCc1cccc(-n2c(C)nn(-c3ccc(C#N)cc3)c2=O)c1 yielded a melting point of 134 to 137 °C. With O=C(O)CNC(=O)Cc1ccccc1S the melting point was 91 to 93 °C. Molecule c1cc(OCCCNCC2COc3cc4c(cc3O2)OCO4)c2cccnc2c1 (stereo unspecified) has a melting point of 140 to 145 °C. In the case of COc1cc(=O)c2c([nH]c1=O)CC(Cl)C(Cl)C2 (stereo unspecified), the melting point is reported as 229 to 230 °C. Work on CCOC(=O)c1cc2c(cn1)[nH]c1cccc(Oc3ccc([N+](=O)[O-])cn3)c12 yielded a melting point of 298 to 300 °C. Work on CN1CCC(OC2c3ccccc3CCn3c(I)cnc32)CC1 (stereo unspecified) yielded a melting point of 163 °C. With O=S(=O)(CC1CCN(CCC2CCOc3ccccc32)CC1)Nc1ccccc1 (stereo unspecified) the melting point was 186 °C. With CCCCOC(=O)c1ccc2nc(N)[nH]c2c1 the melting point was 183 to 185 °C. For N#Cc1ccc(CC23CCNN2C(=O)N(c2cc(Cl)nc(Cl)c2)C3=O)cc1 (stereo unspecified), the melting point was 187 °C. With COc1ccc(C(=O)Nc2ccc(C3(CNC(C)=O)CC3)cc2)cc1OC the melting point was 204 to 206 °C. Molecule CC(=Cc1ccc(F)cc1)COc1cc(C)c(NC=O)c(C)c1C has a melting point of 164 to 165 °C. With CCn1cc(C(=O)O)c(=O)c2c(F)c(F)c(N3CCSCC3)c(F)c21 the melting point was 308 to 310 °C. For CCCN(CCC)C1COc2cccc(C(=O)C3CC3)c2C1 (stereo unspecified), the melting point was 100 to 102 °C. In the case of COc1ccc(NC(=O)c2ccc(F)c(F)c2)cc1NS(=O)(=O)c1cccc([N+](=O)[O-])c1, the melting point is reported as 150 to 160 °C.
